From patent US6545051B1, “Antibacterial hydroxamic acid derivatives” (British Biotech Pharmaceuticals, Ltd., priority 1999, dated 2003)
≈ marks a conversion by molar mass, not a printed value.

Legend:
[1] = system: Staphylococcus capitis (American Type Culture Collection number 35661); assay: Minimal inhibitory concentration (MIC) against Staphylococcus capitis; type: cell-based; details: 2×YT broth, 37° C., 18 hours, lowest drug concentration that inhibited visible growth
Experimental: Minimal inhibitory concentrations (MIC) of inhibitors against E. coli strain DH5α (Genotype; F-φ80dlacZΔM 15Δ(lacZYA-argF)U 169 deoR recA1 endA1 hsdR17(rk^−, mk^+)phoA supE44λ^−thi-1 gyrA96 relA1) obtained from GibcoBRL Life Technologies, or Staphylococcus capitis (American Type Culture Collection number 35661) were determined as follows. Stock solutions of each test compound were prepared by dissolution of the compound in dimethylsulfoxide at 10 mM. For the determination of the minimal inhibitory concentration, two fold serial dilutions were prepared in 2×YT broth (typtone 16 g/1, yeast extract 10 g/1, sodium chloride 5 g/1 obtained from BIO 101 Inc, 1070 Joshua Way, Vista, Calif. 92083, USA) to yield 0.05 ml compound-containing medium per well. Inocula were prepared from cultures grown overnight in 2×YT broth at 37° C. Cell densities were adjusted to absorbance at 660 nm (A660)=0.1; the optical density-standardized preparations were diluted 1:1000 in 2×YT broth; and each well inoculated with 0.05 ml of the diluted bacteria. Microtiter plates were incubated at 37° C. for 18 hours in a humidified incubator. The MIC (μM) was recorded as the lowest drug concentration that inhibited visible growth.

| MIC [1] [µM] | melting point [°C] | Compound |
| --- | --- | --- |
| 100 (≈ 40.7 µg/mL) |  | CCCCCC[C@H](CC(=O)NO)C(=O)N[C@@H](Cc1ccccc1)C(=O)OC(C)C |
|  | 198 to 203 | CCOC(=O)[C@@H](NC(=O)[C@H](CC(C)C)[C@H](C)C(=O)NO)C(C)(C)C [Example 2] |
